Test results reported in patent US20070128217A1 (priority 2003, published 2007).

Experiments:
[1] = system: control sera (pooled serum of ten healthy LUMC hospital workers; commercial negative donor pooled serum from the Dutch bloodbank); type: binding, human; parameters: Binding of Control serum LUMC to linear peptides / Binding of Control serum Blood-bank to linear peptides / Binding of Control serum LUMC to looped peptides / Binding of Control Serum Blood-Bank to Looped peptides / Binding of Control serum LUMC to linear peptides of the protein M of SARS-CoV Urbani / Binding of Control serum Blood-bank to linear peptides of the protein M of SARS-CoV Urbani / Binding of Control serum LUMC to looped peptides of the protein M of SARS-CoV Urbani / Binding of Control Serum Blood-Bank to Looped peptides of the protein M of SARS-CoV Urbani: unit not given here
[2] = system: rabbit serum obtained by immunizing a rabbit with the SARS-CoV strain Frankfurt 1; type: binding; parameters: Binding of a rabbit serum to linear peptides / Binding of a rabbit serum to looped peptides / Rabbit serum linear peptides / Rabbit serum looped peptides / Binding of a rabbit serum to linear peptides of protein N of SARS-CoV Urbani (Rabbit serum linear peptides) / Binding of a rabbit serum to looped/cyclic peptides of protein N of SARS-CoV Urbani (Rabbit serum looped peptides): unit not given here

| Sequence | Binding of Control Serum Blood-Bank to Looped peptides [1] | Binding of Control serum Blood-bank to linear peptides [1] | Binding of Control serum LUMC to linear peptides [1] | Binding of Control serum LUMC to looped peptides [1] | Binding of a rabbit serum to linear peptides [2] | Binding of a rabbit serum to looped peptides [2] | Binding of Control Serum Blood-Bank to Looped peptides of the protein M of SARS-CoV Urbani [1] | Binding of Control serum Blood-bank to linear peptides of the protein M of SARS-CoV Urbani [1] | Binding of Control serum LUMC to linear peptides of the protein M of SARS-CoV Urbani [1] | Binding of Control serum LUMC to looped peptides of the protein M of SARS-CoV Urbani [1] | Rabbit serum linear peptides [2] | Rabbit serum looped peptides [2] | Binding of Control Serum Blood-Bank to Looped peptides of the protein X3 of SARS-CoV Urbani [1] | Binding of Control serum Blood-bank to linear peptides of the protein X3 of SARS-CoV Urbani [1] | Binding of Control serum LUMC to linear peptides of the protein X3 of SARS-CoV Urbani [1] | Binding of Control serum LUMC to looped peptides of the protein X3 of SARS-CoV Urbani [1] | Recognition of the peptide by the rabbit serum [2] |
| --- | --- | --- | --- | --- | --- | --- | --- | --- | --- | --- | --- | --- | --- | --- | --- | --- | --- |
| YFVCWHTHNYDYCIP | 0.6 | 0.6 | 0.7 | 0.6 | 0.1 | 0.6 | – | – | – | – | – | – | – | – | – | – | – |
| AQPVKIDNASPASTV | 1.0 | 0.7 | 0.6 | 1.0 | 0.1 | 0.5 | – | – | – | – | – | – | – | – | – | – | – |
| FNKLVKDPPNVQIHT | 0.8 | 0.8 | 0.9 | 0.7 | 0.1 | 0.7 | – | – | – | – | – | – | – | – | – | – | – |
| KLKEDYQIGGYSEDR | 0.5 | 0.5 | 0.5 | 0.6 | 0.1 | 0.5 | – | – | – | – | – | – | – | – | – | – | – |
| INWVTGGIAIAMACI | – | – | – | – | – | – | 0.6 | 0.8 | 0.5 | 0.9 | 0.5 | 0.4 | – | – | – | – | – |
| PFHPLADNKFALTCT | 0.9 | 0.7 | 0.8 | 0.9 | – | – | – | – | – | – | 0.4 | 0.4 | – | – | – | – | – |
| WHTHNYDYCIPYNSV | 0.7 | 0.7 | 0.8 | 0.9 | 0.1 | 0.6 | – | – | – | – | – | – | – | – | – | – | – |
| KNYSELDDEEPMELD | – | – | – | – | – | – | – | – | – | – | 0.3 | 0.2 | 0.6 | 0.7 | 0.6 | 0.8 | – |
| YCCNIVNVSLVKPTV | 0.7 | 0.9 | 0.6 | 0.6 | 0.7 | 0.3 | – | – | – | – | – | – | – | – | – | – | – |
| SSGVANPAMDPIYDE | 0.7 | 0.5 | 0.5 | 0.7 | 0.1 | 0.6 | – | – | – | – | – | – | – | – | – | – | – |
| ANYFVCWHTHNYDYC | 0.5 | 0.7 | 0.7 | 0.6 | 0.1 | 0.5 | – | – | – | – | – | – | – | – | – | – | – |
| VSLVKPTVYVYSRVK | 0.6 | 0.9 | 0.6 | 0.9 | 1.5 | 2.0 | – | – | – | – | – | – | – | – | – | – | – |
| RVKNLNSSEGVPDLL | 0.7 | 1.0 | 1.0 | 1.0 | 0.8 | 0.6 | – | – | – | – | – | – | – | – | – | – | – |
| HQNSKKTTKLVVILR | 0.6 | 0.5 | 0.8 | 0.6 | – | – | – | – | – | – | – | – | – | – | – | – | recognized |
| GDGISTPKLKEDYQI | 0.4 | 0.6 | 0.5 | 0.4 | 0.1 | 0.5 | – | – | – | – | – | – | – | – | – | – | – |
| VKPTVYVYSRVKNLN | 0.8 | 0.8 | 0.4 | 0.8 | 0.5 | 0.7 | – | – | – | – | – | – | – | – | – | – | – |

| Sequence | Binding of Control Serum Blood-Bank to Looped peptides [1] | Binding of Control serum Blood-bank to linear peptides [1] | Binding of Control serum LUMC to linear peptides [1] | Binding of Control serum LUMC to looped peptides [1] | Binding of a rabbit serum to linear peptides [2] | Binding of a rabbit serum to looped peptides [2] | Binding of Control Serum Blood-Bank to Looped peptides of the protein M of SARS-CoV Urbani [1] | Binding of Control serum Blood-bank to linear peptides of the protein M of SARS-CoV Urbani [1] | Binding of Control serum LUMC to linear peptides of the protein M of SARS-CoV Urbani [1] | Binding of Control serum LUMC to looped peptides of the protein M of SARS-CoV Urbani [1] | Rabbit serum linear peptides [2] | Rabbit serum looped peptides [2] | Binding of Control Serum Blood-Bank to Looped peptides of the protein X3 of SARS-CoV Urbani [1] | Binding of Control serum Blood-bank to linear peptides of the protein X3 of SARS-CoV Urbani [1] | Binding of Control serum LUMC to linear peptides of the protein X3 of SARS-CoV Urbani [1] | Binding of Control serum LUMC to looped peptides of the protein X3 of SARS-CoV Urbani [1] | Recognition of the peptide by the rabbit serum [2] |
| --- | --- | --- | --- | --- | --- | --- | --- | --- | --- | --- | --- | --- | --- | --- | --- | --- | --- |
| TAQPVKIDNASPAST | 0.5 | 0.7 | 0.6 | 0.6 | 0.1 | 0.4 | – | – | – | – | – | – | – | – | – | – | – |
| LCAYCCNIVNVSLVK | 0.8 | 1.1 | 0.8 | 0.7 | 0.7 | 0.4 | – | – | – | – | – | – | – | – | – | – | – |
| SYYKLGASQRVGTDS | – | – | – | – | – | – | 0.8 | 0.8 | 0.4 | 0.7 | 0.4 | 0.3 | – | – | – | – | – |
| TVYVYSRVKNLNSSE | 0.7 | 0.5 | 0.3 | 0.9 | 0.8 | 0.3 | – | – | – | – | – | – | – | – | – | – | – |
| CQDPAGGALIARCWY | 0.9 | 0.7 | 0.3 | 0.7 | – | – | – | – | – | – | 0.5 | 0.6 | – | – | – | – | – |
| TKLVVILRIGTQVLK | 0.6 | 0.7 | 0.5 | 0.7 | 0.3 | 0.6 | – | – | – | – | – | – | – | – | – | – | – |
| TPKLKEDYQIGGYSE | 0.7 | 0.5 | 0.6 | 0.9 | 0.1 | 1.2 | – | – | – | – | – | – | – | – | – | – | – |
| HPLGRCDIKDLPKEI | – | – | – | – | – | – | 1.0 | 1.0 | 0.7 | 0.7 | 0.2 | 1.1 | – | – | – | – | – |
| HYQECVRGTTVLLKE | 0.9 | 0.8 | 0.7 | 1.0 | – | – | – | – | – | – | 0.5 | 0.5 | – | – | – | – | – |
| NYSELDDEEPMELDY | – | – | – | – | – | – | – | – | – | – | 0.4 | 0.3 | 0.8 | 0.9 | 0.9 | 0.9 | – |
| DGSSGVANPAMDPIY | 0.5 | 0.9 | 0.8 | 0.4 | 0.1 | 0.6 | – | – | – | – | – | – | – | – | – | – | – |
| KPTVYVYSRVKNLNS | 0.9 | 0.7 | 0.8 | 0.9 | 0.6 | 0.9 | – | – | – | – | – | – | – | – | – | – | – |
| HTHNYDYCIPYNSVT | 0.6 | 0.6 | 0.7 | 0.6 | 0.1 | 0.6 | – | – | – | – | – | – | – | – | – | – | – |
| LKTMSLYMAISPKFT | 0.6 | 0.7 | 0.6 | 0.6 | 0.1 | 0.4 | – | – | – | – | – | – | – | – | – | – | – |
| CCNIVNVSLVKPTVY | 0.4 | 0.7 | 0.5 | 0.5 | 0.6 | 0.0 | – | – | – | – | – | – | – | – | – | – | – |
